Patent US11292773B2, “Small molecule inhibitors of BCL-2-associated death promoter (BAD) phosphorylation” (NATIONAL UNIVERSITY OF SINGAPORE, priority 2017, dated 2022)
Entries after “also recorded” stand apart in the source; their conditions may differ.

Key:
[1] = system: various kinases in MCF7 cells; experiment: Human Phospho-Kinase Antibody Array; type: cell-based; details: NPB 10 μM, 12 h, vs DMSO
Description: (A) Western blot analysis was used to assess the level of BAD Ser99 phosphorylation of pBAD, BAD, pAKT, and AKT in MCF7 cells after an increasing period of treatment with NPB (10 μM). Soluble whole cell extracts were run on an SDS-PAGE and immunoblotted as described in methodology. The sizes of detected protein bands in kDa are shown on the left side. (B) Kinases and phosphorylated substrates were detected using a Western Blot array (Proteome Profiler Human Phospho-Kinase Array Kit. MCF7 cells treated with NPB (10 μM) or DMSO for 12 h at 37° C. before preparation of cell lysate. Mean pixel density was analysed using ImageJ software and is represented below.
To elucidate the possibility that NPB decreased hBAD Ser99 phosphorylation by modulation of kinase activity, we assessed the effects of NPB on various kinases using Human Phospho-Kinase Antibody Array Kit from R&D Systems.

MCF7 cells = experiment: AlamarBlue cell viability assay; type: cell-based; details: Homo sapiens, read-out: IC50 (antiproliferative)
Description: We initially investigated the effect of newly synthesized small molecule compounds against MCF7 cells (ER+ MC cells) using an AlamarBlue® cell viability assay. Among the series of novel small molecule compounds, NPB was identified as an efficacious small molecule compound reducing viability of MCF7 cells compared to vehicle (DMSO) treated cells. […] We next determined the inhibitory concentration 50% (IC50) of NPB in wide-range of carcinoma cell lines including those derived from ER− mammary (BT549, MDA-MB-231), ER+ mammary (MCF7, T47D, and BT474), endometrial (Ishikawa, ECC-1, RL95-2, and AN3), ovarian (SK-OV-3, OVCAR-2, Caov-3, HEY C2, and OVCA433), hepatocellular (Hep3B, H2P, and H2M), colon (HCT116, DLD-1, and Caco-2), prostate (PC3, LNCaP, and DU145) and pancreatic (AsPC-1, BxPC-3) carcinoma. As normal cell controls, we also included immortalized mammary epithelial cells (MCF10A and MCF12A), and immortalized hepatocytes (LO2) in the panel of cell lines.

[2] = system: normal hepatocytes (LO2) and immortalized mammary epithelial cells (MCF10A and MCF12A); experiment: Activity on normal immortalized cells; type: cell-based, human
Description: NPB was subsequently evaluated against panel of normal immortalized mammary epithelial cells (MCF10A and MCF12A), normal hepatocytes (LO2), mammary carcinoma (BT549, MDA-MB-231, MCF7, T47D, BT474), endometrial cancer (Ishikawa, Ecc1, RL95-2, AN3), ovarian cancer (SK-OV-3, OVCAR-2, Caov-3, HEY C2, Ovca433), liver cancer (Hep3B, H2P, H2M), colon cancer (HCT116, DLD-1, Caco-2), prostate cancer (PC3, LNCaP, DU145) and pancreatic cancer (AsPC-1, BxPC-3) cells. […] Using a Laplacian-modified Naïve Bayes classifier, NPB is subjected to in silico analysis which anticipates the human target of NPB as BAD protein.
Effect of NPB (5 μM) on carcinoma cell viability including, mammary, endometrial, ovarian, liver, colon, prostate, and pancreatic carcinoma cell lines. (A) Cell viability (B) caspase 3/7 activities and (C) cytotoxicity were evaluated using ApoTox-GIo™ Triplex Assay Kit as described in methodology. Statistical significance was assessed by an unpaired two-tailed Student's t-test using GraphPad Prism5. The column represents mean of triplicate determinations; bars, ±SD. **P<0.001, *P<0.05. Note: RFU, relative fluorescence unit; RLU, relative luminescence unit, #; non-transformed, immortalized epithelial cells; MB-231, MDA-MB-231. […]

Q: Which results are given for O=C(NC1CCCC1)c1cccc(C(c2ccccc2O)N2CCN(c3cccc(Cl)c3Cl)CC2)c1 (stereo not drawn) [NPB, N-cyclopentyl-3-((4-(2,3-dichlorophenyl)piperazin-1-yl)(2-hydroxyphenyl)methyl) benzamide]?
A: kinase activity or phosphorylated substrates [1]: No significant changes; IC50 (MCF7 cells): 6.5 µM; activity / cytotoxic effect on normal cells [2]: no substantial activity; also recorded: did not have cytotoxic effect
